Measurements reported in patent publication US11026945B2, “Protein kinase RNA-like endoplasmic reticulum kinase (PERK) inhibitors for prevention and/or treatment of lung injury and/or inflammation” (THE TRUSTEES OF THE UNIVERSITY OF PENNSYLVANIA, priority 2016, dated 2021).

Legend:
[1] = test system: integrated stress response (ISR) signaling (p-PERK, p-EIF2α, ATF4, CHOP); assay: Western blot of ISR signaling in stretched AEC-I monolayers; type: cell-based, rat
Description: To obtain monolayer rat type-II alveolar epithelial cells (AEC-II), cells were isolated from Sprague-Dawley rats (250-300 g, N=30 purchased from Charles River Laboratories, Wilmington, Mass.) described by Tschumperlin D J, Margulies SS. Equibiaxial deformation-induced injury of alveolar epithelial cells in vitro. Am J Physiol. 1998; 275(6 Pt 1):L1173-83. Epub 1998/12/09 (PubMed PMID: 9843855), with modifications. Briefly, animals were killed and the lungs were harvested. The lung tissue was digested with elastase at 37° C. and distal airways were isolated. Following, cells were placed on rat IgG coated containing no serum for 90 minutes to eliminate contaminating leukocytes and parenchymal cells. This isolation method yielded approximately 95% pure alveolar epithelial cell population. 1.3 million cells were plated on 1 cm diameter fibronectin-coated custom made silastic membranes. In permeability studies, biotin were mixed with fibronectin and membranes were pretreated with oxygen plasma coating to ensure homogenous distribution of the fibronectin. Cells were cultured with 10% fetal bovine serum (FBS)-containing Minimal Essential Medium (MEM) containing low dose antibiotics for 3 days. 32 to 40 monolayers were per rat. […] RNAiMax transfection reagent treatment using serum free media (Opti-MEM, Thermo Fisher Scientific, Waltham, Mass.). This is a negative control for siRNA experiments where serum free media is used for improved transfection efficiency; • B. non-targeting siRNA treatment ([…], Dharmacon) serves a negative control for transfection; • C. 0.5 μg siRNA treatment targeting PERK; • D. 0.5 μg siRNA treatment targeting ATF4; • E. 0.5 μg siRNA treatment targeting CHOP; • F. vehicle control (DMSO) for PI; and • G. 1 μM PI treatment.
The dose of siRNA and PI treatment was selected based on dose-response curves above (FIG. 2A-FIG. 2E). AEC-II transformed to AEC-I cells and formed a complete monolayer by day 4, expressing only AEC-I cell surface markers. On the day of the experiment, the medium was removed and replaced with HEPES-buffered MEM. Cells stretch was performed in a 37° C. incubator. The effect of ISR inhibition or control treatment was compared in the following three conditions (N=5 biological replicates/condition): 1) no stretch (NS) controls; 2) mechanical stretch with 12% surface change (S 12%); and 3) mechanical stretch with 25% surface change (S25%). The cell monolayers were exposed to the above mentioned conditions for 6 hours based on time course of ISR protein expression obtained during preliminary data collection (FIG. 2A-FIG. 2E). All membranes were treated with FITC-labeled streptavidin (Thermo Fisher Scientific) at the end of the experiment and light emission was detected at 488 nm with fluorescent microscopy (Nikon TE300, Melville, N.Y.). In a separate set of experiments (N=30 rats), in which the above mentioned treatment plan and conditions were used, cells were harvested at the end of the experiment by scraping them in RIPA buffer and total protein was extracted (N=3 membranes/treatment group performed for N=5 biological replicates per condition). Co-immunoprecipitation (IP) assays were performed using 5 μg of ZO-1 protein as bait (IP kit, Thermo Fisher Scientific). Following co-IP, immunoblotting was performed for ZO-1, OCLN and CLDN proteins 4, 7 and 18 (Invitrogen, Carlsbad, Calif.).
Rats (N=106) were euthanized with an overdose of sodium pentobarbital (55 mg/kg). The chest was shaved and cleaned with Wexcide. Tracheostomy was performed, and a 14 gauge (G) metal cannula was inserted in the trachea lumen. The animals were connected to a rodent ventilator (Harvard Apparatus Model 640, Holliston, Mass.). Subsequently, the chest and abdomen were opened by a midline incision, and the aorta was transected causing exsanguination. […]

[2] = test system: ISR (p-EIF2α, ATF4, CHOP) in lung tissue; assay: Lung tissue ISR western blot in rat VILI model; type: in vivo
Experimental: The right lung was harvested. […] For cytokine analysis serum was used.
Total protein from cells and lung tissue were extracted using RIPA lysis buffer. Total protein was quantified with Pierce […] (Thermo Fisher Scientific). Western blotting for phosphorylated (p) and total (t) forms of EIF2α, p- and t-IRE1α, p- and t-PERK, ATF4, CHOP and XBP1 was performed. B-actin was used as loading control (Santa Cruz Biotechnologies, Santa Cruz, Calif.). The following primary antibodies were used: p-EIF2α (Ser 51) and t-EIF2α rabbit monoclonal antibody (Cell Signaling, Danvers, Mass.), p-IRE1α (Ser 724) and t-IRE1α rabbit monoclonal antibody (Abcam, Cambridge, Mass.), ATF4 rabbit polyclonal antibody (Sigma-Aldrich), CHOP (F-168) mouse polyclonal antibody (Santa Cruz), XBP-1 rabbit monoclonal antibody (Abcam) and B-actin mouse polyclonal antibody (Santa Cruz). For immunoprecipitation of PERK, p-PERK (Thr 981) antibody (Santa Cruz) was used and p-PERK (Thr 980) and t-PERK were detected with rabbit monoclonal antibodies (Cell signaling). N=4-8 biological replicates per conditions were used in immunoblot studies. Immunoblots were scanned and bend densities were analyzed using Image J software.

[3] = stretched AEC-I monolayers, 1 μM PI, 24 hours pretreatment
[4] = unstretched monolayers, 1 μM PI for 18 hours
[5] = ventilated rats (VPI), 30 mg/kg oral gavage 4 hours before ventilation

SMILES: Cn1cc(-c2ccc3c(c2)CCN3C(=O)Cc2cccc(C(F)(F)F)c2)c2c(N)ncnc21 [PI, 1-[5-(4-Amino-7-methyl-7H-pyrrolo[2,3-d]pyrimidin-5-yl)indolin-1-yl]-2-(3-trifluoromethylphenyl)ethanone]
- ATF4 [1, 3]: decreased
- CHOP [1, 3]: decreased
- p-EIF2α [1, 3]: decreased
- p-PERK [1, 3]: decreased
- Level of ATF4 [1, 4]: unaffected
- Level of CHOP [1, 4]: unaffected
- Level of p-EIF2α [1, 4]: unaffected
- Level of p-PERK [1, 4]: unaffected
- p-EIF2α, ATF4 and CHOP in lung tissue ([2]; spontaneously breathing controls (CPI), 30 mg/kg oral gavage): did not affect
- VILI-mediated phosphorylation of EIF2α in lung tissue [2, 5]: significantly reduced
- protein expression of ATF4 in lung tissue [2, 5]: significantly reduced
- protein expression of CHOP in lung tissue [2, 5]: significantly reduced
